Results taken from ChEMBL document CHEMBL5696442, “Discovery of type II inhibitors of TGFβ-activated kinase 1 (TAK1) and mitogen-activated protein kinase kinase kinase kinase 2 (MAP4K2)” (J Med Chem, 2015).
The source made the active and inactive calls. The rule behind the calls is not given here.

Columns and labels:
[1] = target: Serine/threonine-protein kinase 38 (Homo sapiens) (UniProt Q15208); assay: Inhibition of NDR1 Lys1 labeling site in human Huh-7 cell lysate at 1 uM by KiNativ Profiling analysis relative to control; assay type: subcellular
Chain of Serine/threonine-protein kinase 38 (Homo sapiens) (Q15208 2-465 limits assumed): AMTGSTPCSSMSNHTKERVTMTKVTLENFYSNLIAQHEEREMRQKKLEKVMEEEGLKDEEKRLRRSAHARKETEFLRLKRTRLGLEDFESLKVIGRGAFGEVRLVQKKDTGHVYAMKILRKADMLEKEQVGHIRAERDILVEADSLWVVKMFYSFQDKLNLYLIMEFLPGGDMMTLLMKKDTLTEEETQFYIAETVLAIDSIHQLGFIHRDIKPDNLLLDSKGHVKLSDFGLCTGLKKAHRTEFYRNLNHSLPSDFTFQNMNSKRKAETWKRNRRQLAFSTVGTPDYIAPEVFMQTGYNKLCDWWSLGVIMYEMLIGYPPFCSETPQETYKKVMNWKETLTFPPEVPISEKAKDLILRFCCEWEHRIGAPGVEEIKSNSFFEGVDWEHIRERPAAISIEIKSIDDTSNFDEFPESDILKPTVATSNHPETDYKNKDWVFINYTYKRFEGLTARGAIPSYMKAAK

[2] = target: T1, PAN2-PAN3 deadenylation complex subunit PAN3 (Homo sapiens) (UniProt Q58A45); assay: Inhibition of PAN3 KD labeling site in human Huh-7 cells at 10 uM by KiNativ Profiling analysis relative to control; assay type: cell-based
T1 sequence (whole entry): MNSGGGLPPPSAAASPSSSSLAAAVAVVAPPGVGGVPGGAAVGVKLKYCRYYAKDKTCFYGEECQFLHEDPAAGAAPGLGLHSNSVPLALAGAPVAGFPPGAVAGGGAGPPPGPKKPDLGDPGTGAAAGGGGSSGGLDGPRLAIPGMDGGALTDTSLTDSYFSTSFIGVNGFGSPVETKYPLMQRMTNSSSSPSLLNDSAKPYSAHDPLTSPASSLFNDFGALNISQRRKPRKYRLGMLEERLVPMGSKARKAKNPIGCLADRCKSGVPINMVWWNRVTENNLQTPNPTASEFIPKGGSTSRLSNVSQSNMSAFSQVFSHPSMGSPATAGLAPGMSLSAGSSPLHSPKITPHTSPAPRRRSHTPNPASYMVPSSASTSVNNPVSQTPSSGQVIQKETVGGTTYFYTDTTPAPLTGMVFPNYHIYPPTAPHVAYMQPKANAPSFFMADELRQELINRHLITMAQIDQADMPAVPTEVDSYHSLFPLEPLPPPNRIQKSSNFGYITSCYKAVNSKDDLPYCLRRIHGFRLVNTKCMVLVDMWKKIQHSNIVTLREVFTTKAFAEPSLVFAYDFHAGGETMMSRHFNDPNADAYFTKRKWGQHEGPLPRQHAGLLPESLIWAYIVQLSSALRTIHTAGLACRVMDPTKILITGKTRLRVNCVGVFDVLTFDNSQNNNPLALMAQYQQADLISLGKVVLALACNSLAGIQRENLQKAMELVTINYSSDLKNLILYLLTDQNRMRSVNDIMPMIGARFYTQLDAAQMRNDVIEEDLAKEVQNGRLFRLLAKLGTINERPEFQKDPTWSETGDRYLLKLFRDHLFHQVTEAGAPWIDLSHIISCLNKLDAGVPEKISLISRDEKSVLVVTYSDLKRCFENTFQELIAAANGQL

[3] = target: Serine/threonine-protein kinase MRCK alpha (Homo sapiens) (UniProt Q5VT25); assay: Inhibition of MRCKA (unknown origin) at 10 uM by Ambit Kinomescan binding assay
Chain of Serine/threonine-protein kinase MRCK alpha (Homo sapiens) (Q5VT25 whole entry): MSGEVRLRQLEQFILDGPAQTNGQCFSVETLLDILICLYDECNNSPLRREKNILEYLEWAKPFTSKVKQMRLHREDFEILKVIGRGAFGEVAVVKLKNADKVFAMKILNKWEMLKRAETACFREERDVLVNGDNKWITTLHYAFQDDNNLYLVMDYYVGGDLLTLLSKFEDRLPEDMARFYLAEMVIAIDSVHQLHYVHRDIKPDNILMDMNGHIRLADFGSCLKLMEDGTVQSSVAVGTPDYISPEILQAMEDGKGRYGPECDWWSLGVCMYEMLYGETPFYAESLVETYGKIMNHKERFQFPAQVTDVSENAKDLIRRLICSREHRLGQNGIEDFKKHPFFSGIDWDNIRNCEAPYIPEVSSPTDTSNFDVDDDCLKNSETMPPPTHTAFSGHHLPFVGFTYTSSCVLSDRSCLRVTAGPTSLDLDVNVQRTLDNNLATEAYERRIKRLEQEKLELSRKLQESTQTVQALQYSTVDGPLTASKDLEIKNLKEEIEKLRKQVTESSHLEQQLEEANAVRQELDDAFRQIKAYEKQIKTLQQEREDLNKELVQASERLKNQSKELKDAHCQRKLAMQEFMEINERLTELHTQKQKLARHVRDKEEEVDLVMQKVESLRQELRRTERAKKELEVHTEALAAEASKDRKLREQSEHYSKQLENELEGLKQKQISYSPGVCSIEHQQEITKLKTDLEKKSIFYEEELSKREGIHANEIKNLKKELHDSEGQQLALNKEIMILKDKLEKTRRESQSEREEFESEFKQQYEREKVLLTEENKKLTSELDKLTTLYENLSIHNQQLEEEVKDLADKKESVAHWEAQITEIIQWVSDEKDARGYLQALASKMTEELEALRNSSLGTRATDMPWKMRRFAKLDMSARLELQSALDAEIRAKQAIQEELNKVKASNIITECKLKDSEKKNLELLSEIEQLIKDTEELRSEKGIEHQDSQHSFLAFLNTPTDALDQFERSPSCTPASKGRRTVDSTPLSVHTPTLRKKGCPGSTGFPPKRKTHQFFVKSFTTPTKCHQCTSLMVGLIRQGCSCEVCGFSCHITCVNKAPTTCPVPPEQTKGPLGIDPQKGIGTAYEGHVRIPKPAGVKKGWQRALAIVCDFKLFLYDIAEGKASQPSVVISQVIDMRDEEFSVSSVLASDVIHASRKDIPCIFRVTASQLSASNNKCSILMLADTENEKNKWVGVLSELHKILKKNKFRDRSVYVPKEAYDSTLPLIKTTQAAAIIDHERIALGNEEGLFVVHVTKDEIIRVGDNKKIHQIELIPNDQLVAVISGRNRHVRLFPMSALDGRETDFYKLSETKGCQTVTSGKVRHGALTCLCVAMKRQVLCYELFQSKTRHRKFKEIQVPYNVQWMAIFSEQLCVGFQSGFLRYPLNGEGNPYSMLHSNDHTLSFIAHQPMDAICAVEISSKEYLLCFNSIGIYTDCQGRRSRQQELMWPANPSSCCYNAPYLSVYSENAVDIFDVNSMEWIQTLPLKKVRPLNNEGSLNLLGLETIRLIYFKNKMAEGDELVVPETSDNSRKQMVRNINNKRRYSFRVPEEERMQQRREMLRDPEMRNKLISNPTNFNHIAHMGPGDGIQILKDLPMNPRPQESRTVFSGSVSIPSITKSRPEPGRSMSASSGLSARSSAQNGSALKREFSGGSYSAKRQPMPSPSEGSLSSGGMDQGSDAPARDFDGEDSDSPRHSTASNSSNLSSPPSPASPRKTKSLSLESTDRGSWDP

[4] = target: T2, Mitogen-activated protein kinase kinase kinase 5 (Homo sapiens) (UniProt Q99683); assay: Inhibition of ASK1 (unknown origin) at 10 uM by Ambit Kinomescan binding assay
T2 sequence (whole entry): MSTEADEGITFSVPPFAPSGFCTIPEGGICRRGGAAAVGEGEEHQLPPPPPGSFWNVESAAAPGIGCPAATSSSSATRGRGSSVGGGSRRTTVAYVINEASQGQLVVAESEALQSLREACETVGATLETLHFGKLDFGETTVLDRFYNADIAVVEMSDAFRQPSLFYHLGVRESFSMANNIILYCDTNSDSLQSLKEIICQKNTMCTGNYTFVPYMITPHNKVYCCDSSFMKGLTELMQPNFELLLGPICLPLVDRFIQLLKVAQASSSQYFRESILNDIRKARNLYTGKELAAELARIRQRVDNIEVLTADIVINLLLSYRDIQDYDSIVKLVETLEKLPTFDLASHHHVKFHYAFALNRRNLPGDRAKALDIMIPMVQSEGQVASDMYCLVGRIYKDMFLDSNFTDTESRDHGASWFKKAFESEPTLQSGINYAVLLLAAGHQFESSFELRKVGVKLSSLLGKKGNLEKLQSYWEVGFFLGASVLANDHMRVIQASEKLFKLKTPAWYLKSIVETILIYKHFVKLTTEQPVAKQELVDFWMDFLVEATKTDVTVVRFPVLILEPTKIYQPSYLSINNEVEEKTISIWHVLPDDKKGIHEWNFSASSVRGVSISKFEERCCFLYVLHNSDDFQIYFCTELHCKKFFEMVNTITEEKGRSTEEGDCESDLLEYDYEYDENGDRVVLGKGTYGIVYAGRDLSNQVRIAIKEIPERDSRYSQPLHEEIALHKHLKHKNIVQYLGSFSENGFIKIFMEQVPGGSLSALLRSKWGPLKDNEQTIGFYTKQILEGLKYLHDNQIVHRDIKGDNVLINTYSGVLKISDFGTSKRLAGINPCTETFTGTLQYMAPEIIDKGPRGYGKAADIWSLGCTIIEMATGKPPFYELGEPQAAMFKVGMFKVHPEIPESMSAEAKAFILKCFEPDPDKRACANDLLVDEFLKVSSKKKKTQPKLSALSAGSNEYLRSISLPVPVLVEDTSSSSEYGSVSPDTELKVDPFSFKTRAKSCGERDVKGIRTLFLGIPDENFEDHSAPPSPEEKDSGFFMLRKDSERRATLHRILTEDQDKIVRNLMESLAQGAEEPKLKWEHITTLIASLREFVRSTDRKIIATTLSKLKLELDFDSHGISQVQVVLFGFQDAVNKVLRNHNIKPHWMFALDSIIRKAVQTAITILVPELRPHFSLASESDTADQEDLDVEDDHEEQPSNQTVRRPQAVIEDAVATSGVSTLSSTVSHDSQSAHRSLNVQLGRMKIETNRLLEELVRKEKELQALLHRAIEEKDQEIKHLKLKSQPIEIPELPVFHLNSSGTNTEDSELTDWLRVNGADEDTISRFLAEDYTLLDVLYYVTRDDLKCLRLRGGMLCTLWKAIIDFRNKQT

[5] = target: T3, Phosphatidylinositol 5-phosphate 4-kinase type-2 gamma (Homo sapiens) (UniProt Q8TBX8); assay: Inhibition of PIP4K2C ATP labeling site harbouring VKELPTLK in human A-375 cells at 0.05 uM by KiNativ Profiling analysis relative to control; assay type: cell-based
T3 sequence (whole entry): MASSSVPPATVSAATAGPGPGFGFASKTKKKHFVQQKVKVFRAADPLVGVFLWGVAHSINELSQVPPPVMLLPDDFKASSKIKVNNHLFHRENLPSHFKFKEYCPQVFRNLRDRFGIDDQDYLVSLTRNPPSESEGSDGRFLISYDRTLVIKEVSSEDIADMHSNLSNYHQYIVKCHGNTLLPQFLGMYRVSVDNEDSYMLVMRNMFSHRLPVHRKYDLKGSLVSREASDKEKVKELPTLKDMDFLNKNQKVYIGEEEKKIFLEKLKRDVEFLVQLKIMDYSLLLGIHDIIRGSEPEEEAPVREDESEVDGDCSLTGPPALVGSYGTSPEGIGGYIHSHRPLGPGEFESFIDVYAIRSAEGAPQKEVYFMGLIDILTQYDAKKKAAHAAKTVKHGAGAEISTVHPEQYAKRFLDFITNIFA

Q: Which inhibition [1] does the source give for CNc1cc(Oc2cc(C(=O)Nc3cc(N4CCN(C)CC4)cc(C(F)(F)F)c3)ccc2C)ncn1 here?
A: The inhibition was 9.5%.

Q: How did the inhibition [2] turn out when CCN1CCN(Cc2ccc(NC(=O)c3ccc(C)c(Oc4ccnc5[nH]ccc45)c3)cc2C(F)(F)F)CC1 was run?
A: Its inhibition is 4.5%.

Q: What about the inhibition [3] of the same molecule?
A: Its inhibition is “inactive”.

Q: What about the inhibition [4] of the same molecule?
A: The inhibition was “inactive”.

Q: With CCN1CCN(Cc2ccc(NC(=O)c3ccc(C)c(/C=C/c4cnc5[nH]ccc5c4OC)c3)cc2C(F)(F)F)CC1 as the molecule, how does the inhibition [5] read?
A: Its inhibition is -8.6%.
